Entries after “also recorded” stand apart in the source; their conditions may differ.
Columns and labels:
IRS-1 = test: Tyrosine phosphorylation of IRS-1 in IGF-I-stimulated MCF7 cells; type: cell-based, human; conditions: antibodies 10 μg/ml, IGF-I 50 ng/ml
Protocol: MCF7 cells are cultured for 24 hours at 5·10^4 cells/cm^2 (75 cm^2 plates, COSTAR) in 20 ml of RPMI without phenol red, mixed with 5 mM of glutamine, penicillin/streptomycin (respectively 100 U/100 μg/ml) and 10% of fetal calf serum. After three washes in PBS, the cells were incubated for 12 hours in medium (RPMI) without phenol red, devoid of fetal calf serum and mixed with 5 mM of glutamine, penicillin/streptomycin, bovine serum albumin at 0.5 μg/ml (Sigma A-8022) and transferrin at 5 μg/ml (Sigma T8158).
For activation, the cells were first incubated at 37° C. for 2 minutes with blocking antibodies (10 μg/ml) and then IGF-I (Sigma I3769, 50 ng/ml) was added for two additional minutes. The reaction was stopped by aspiration of the incubation medium and the plates were laid on ice. […] The solutions were centrifuged at 12,000 rpm for ten minutes (4° C.) and the protein concentrations of the supernatants were quantified by BCA.
500 μg of proteins of the cell lysate were mixed with the anti-IGF-IR (Santa cruz Ref.: sc-713) for immunoprecipitation and incubated on the shaker at 4° C. for 1.5 hours. […] The supernatants were analyzed by electrophoresis on polyacrylamide SDS gel (8% Novex EC6015). […]

MCF-7 tumor = MCF-7 tumor growth in nude mice (subcutaneous xenograft); type: in vivo; conditions: for inhibition of MCF-7 tumor growth in vivo, murine versus humanized antibody: 125 μg/dose twice a week i.p. (Example 36)
Protocol: The in vivo selection was carried out in an established tumor model. In order to do this, nude mice received a subcutaneous implant of slow-release estrogen, indispensable for the taking of the tumor in a murine model. Twenty-four hours after implantation of the estrogens, 5·10^6 MCF-7 cells are grafted onto the right flank of the mouse subcutaneously. Five days after this cell graft, the tumors are measurable and batches of 6 mice are formed at random. The treatment of the mice is carried out twice per week, during 5 to 6 weeks, at the dose of 250 μg/dose/mouse. In the control group, the mice are treated in the same fashion with a murine control isotype. […] Another non exclusive hypothesis could be the recognition by these antibodies of the atypical IGF-IR as described in the paper of Siddle et al., (Siddle et al., 1994, Horn Res. 41(suppl. 2):56-65).
The long-term use of tamoxifen is associated with a significant increase in the risk of endometrial cancer (Fisher et al., J. of National Cancer Institute, 86, 7:527-537, 1994; VIDAL 2000, 1975-1976) and of collateral recurrence of E2-independent cancer of the breast (Li C. I. et al., J. Natl. Cancer Inst., July 4, 93(13):1008-1013, 2001). […] In order to do this, 7·10^6 MCF-7 cells were implanted sc (subcutaneously) in nude mice, 24 hours after implantation in these same mice of a grain of estradiol with prolonged release (0.72 mg/tablet liberated over 60 days), indispensable for the establishment of any E2-dependent human tumor in this animal species. Five days after this implantation, the tumors are measured and groups of 6 mice are formed. […] The tamoxifen is administered daily for 4 weeks except at the weekend. […] A study was previously carried out in order to verify that the solvent alone is without influence on the tumor growth.
To do this, 5·10^6 A549 cells were implanted subcutaneously in nude mice. Five days after this implantation, the tumors were measured and groups of 6 mice were formed. […] In the MCF-7 breast tumor model, a sustained-release oestradiol granule (0.72 mg/tablet released over 60 days) is implanted subcutaneously 24 hours before implantation of the cells. This granule is essential to the establishment of any E2-dependent human tumor in this animal species.

IR = test: Immunoprecipitation of IR from R−/IR-A and R−/IR-B cell lysates; type: binding
From the text: The used cells for this study are listed thereafter: • R+: R− fibroblasts stably transfected with the IGF-I receptor (IGF-IR) cDNA • R−/IR-A: R− fibroblasts stably transfected with the insulin receptor isoform A (IR-A) cDNA • R−/IR-B:R− fibroblasts stably transfected with the insulin receptor isoform B (IR-B) cDNA • R+/IR-A: R− fibroblasts stably co-transfected with the IGF-I and the insulin receptor isoform A cDNA and, therefore, expressing hybrid receptors A (Hybrid-RsA) • R+/IR-B: R− fibroblasts stably co-transfected with the IGF-I and the insulin receptor isoform B cDNA and, therefore, expressing hybrid receptors B (Hybrid-RsB)
For the obtention of cellular lysat, cells were solubilized in RIPA buffer and 4 mg protein used for immunoprecipitation.
Following immunoprecipitation, the pellet was resuspended in 2× sample buffer and subjected to SDS-PAGE (7.5% polyacrylamide).
Filters were blotted as follows: Filters containing R+ lysates (and therefore only IGF-IR) with an anti-IGF-IR β-subunit (Santa Cruz). Filters containing lysates from all the remaining cells with an antibody anti-IR β-subunit (Santa Cruz).

Row | Substance | inhibition of tyrosine phosphorylation of IRS-1 (IRS-1) | inhibition of MCF-7 tumor growth in vivo, murine versus humanized antibody (MCF-7 tumor) | inhibition of MCF-7 tumor growth in vivo (MCF-7 tumor; 250 μg/dose/mouse twice per week i.p.) | immunoprecipitation of IR (IR) | inhibition of MCF-7 tumor growth in vivo, murine versus humanized antibody (MCF-7 tumor; listed as 7H2HM)
1 | 7C10: murine monoclonal anti-IGF-IR IgG1 secreted by the hybridoma deposited at the CNCM under the number I-2717 | inhibit the phosphorylation | significant inhibition of tumor growth | very significant inhibition of the tumor growth; also recorded: significantly inhibiting the growth; also recorded: significantly more efficacious than tamoxifen | Neither 7C10 nor h7C10 appreciably immunoprecipitate IR | 
2 | h7C10: humanized 7C10 anti-IGF-IR antibody, isotype IgG1 (humanized 1 written 7H2HM) | inhibit the phosphorylation | exactly the same intensity as that observed with its murine counterpart |  | Neither 7C10 nor h7C10 appreciably immunoprecipitate IR | perfectly comparable with the murine antibody 7C10
